{"source": "patent US7186864B2", "about": "“Glucocorticoid mimetics, methods of making them, pharmaceutical compositions, and uses thereof” (Boehringer Ingelheim Pharmaceuticals, Inc., priority 2002, dated 2007)", "molecular_target": "T1, human glucocorticoid receptor (GR) complex (Homo sapiens, UniProt P04150)", "T1 construct": "made in house; host or cells: insect expression system (baculovirus lysate)", "T1 sequence (P04150 1-777)": "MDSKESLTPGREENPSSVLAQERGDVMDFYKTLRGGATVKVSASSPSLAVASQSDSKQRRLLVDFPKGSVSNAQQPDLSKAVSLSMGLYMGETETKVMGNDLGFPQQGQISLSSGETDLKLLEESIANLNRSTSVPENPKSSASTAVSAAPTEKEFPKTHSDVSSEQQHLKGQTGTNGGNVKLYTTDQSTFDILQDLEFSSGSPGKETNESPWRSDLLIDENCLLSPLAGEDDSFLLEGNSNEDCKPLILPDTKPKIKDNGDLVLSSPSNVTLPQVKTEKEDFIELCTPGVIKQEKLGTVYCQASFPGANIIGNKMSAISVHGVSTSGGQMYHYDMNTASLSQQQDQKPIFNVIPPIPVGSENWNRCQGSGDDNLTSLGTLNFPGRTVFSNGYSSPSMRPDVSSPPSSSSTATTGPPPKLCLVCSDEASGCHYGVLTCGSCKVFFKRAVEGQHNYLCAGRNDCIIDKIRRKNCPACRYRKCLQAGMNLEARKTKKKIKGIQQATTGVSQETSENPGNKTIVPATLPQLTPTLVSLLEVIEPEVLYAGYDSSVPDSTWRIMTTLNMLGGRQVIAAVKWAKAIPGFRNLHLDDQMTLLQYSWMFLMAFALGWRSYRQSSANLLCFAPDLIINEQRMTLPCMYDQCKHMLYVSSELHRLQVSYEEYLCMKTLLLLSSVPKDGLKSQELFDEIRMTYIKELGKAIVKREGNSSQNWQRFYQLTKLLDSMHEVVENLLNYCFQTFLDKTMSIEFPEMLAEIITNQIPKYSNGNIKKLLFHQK", "experiment": "Glucocorticoid receptor competitive binding assay (fluorescence polarization, TAMRA-labeled dexamethasone probe)", "details": "qualitative statement, values not given", "method": "Compounds of the invention were evaluated for binding to the steroid receptor by a fluorescence polarization competitive binding assay. Detailed descriptions for preparation of recombinant glucocorticoid receptor (GR) complex used in the assay is described in Goldrick et al., U.S. provisional application No. 60/291,877, filed May 18, 2001 (corresponding to Goldrick et al., U.S. nonprovisional application No. 10/151,133, filed May 20, 2002) both incorporated herein by reference in their entirety. Preparation of the tetramethyl rhodamine (TAMRA)-labeled dexamethasone probe was accomplished using a standard literature procedure (M. Pons et al., J. Steroid Biochem., 1985, 22, pp. 267–273).\nA. Glucocorticoid Receptor Competitive Binding Assay\nStep 1. Characterization of the Fluorescent Probe\nThe wavelengths for maximum excitation and emission of the fluorescent probe should first be measured. An example of such a probe is rhodamine (TAMRA)-labeled dexamethasone.\nThe affinity of the probe for the steroid receptor was then determined in a titration experiment. The fluorescence polarization value of the probe in assay buffer was measured on an SLM-8100 fluorometer using the excitation and emission maximum values described above. Aliquots of expression vector lysate were added and fluorescence polarization was measured after each addition until no further change in polarization value was observed. Non-linear least squares regression analysis was used to calculate the dissociation constant of the probe from the polarization values obtained for lysate binding to the probe.\nStep 2. Screening for Inhibitors of Probe Binding\nThis assay uses fluorescence polarization (FP) to quantitate the ability of test compounds to compete with tetramethyl rhodamine (TAMRA)-labeled dexamethasone for binding to a human glucocorticoid receptor (GR) complex prepared from an insect expression system. The assay buffer was: 10 mM TES, 50 mM KCl, 20 mM Na2MoO4.2H2O, 1.5 mM EDTA, 0.04% w/v CHAPS, 10% v/v glycerol, 1 mM dithiothreitol, pH 7.4. Test compounds were dissolved to 1 mM in neat DMSO and then further diluted to 10× assay concentration in assay buffer supplemented with 10% v/v DMSO. Test compounds were serially diluted at 10× assay concentrations in 10% DMSO-containing buffer in 96-well polypropylene plates. Binding reaction mixtures were prepared in 96-well black Dynex microtiter plates by sequential addition of the following assay components to each well: 15 μL of 10× test compound solution, 85 μL of GR-containing baculovirus lysate diluted 1:170 in assay buffer, and 50 μL of 15 nM TAMRA-labeled dexamethasone. Positive controls were reaction mixtures containing no test compound; negative controls (blanks) were reaction mixtures containing 0.7 μM to 2 μM dexamethasone. The binding reactions were incubated for 1 hour at room temperature and then read for fluorescence polarization in the LJL Analyst set to 550 nm excitation and 580 nm emission, with the Rhodamine 561 dichroic mirror installed. IC50 values were determined by iterative non-linear curve fitting of the FP signal data to a 4-parameter logistic equation."}
{"smiles": "COc1ccc(F)cc1C(C)(C)CC(N)(Cc1ccc(Cl)c(Cl)c1)C(F)(F)F", "note": "(stereo not shown) [Compound 3, 1-(3,4-Dichloro-benzyl)-3-(5-fluoro-2-methoxy-phenyl)-3-methyl-1-trifluoromethyl-butylamine]", "values": [{"measurement": "activity in the GR binding assay", "value": "demonstrated activity"}]}
{"smiles": "Cc1cc(C)cc(CC(N)(CC(C)(C)c2cc(F)ccc2O)C(F)(F)F)c1", "note": "(stereo not shown) [Compound 6, 2-[3-Amino-3-(3,5-dimethyl-benzyl)-4,4,4-trifluoro-1,1-dimethyl-butyl]-4-fluoro-phenol]", "values": [{"measurement": "activity in the GR binding assay", "value": "demonstrated activity"}]}
{"smiles": "CC(C)(CC(N)(Cc1cc(Cl)cc(Cl)c1)C(F)(F)F)c1cc(F)ccc1O", "note": "(stereo not shown) [Compound 7, 2-[3-Amino-3-(3,5-dichloro-benzyl)-4,4,4-trifluoro-1,1-dimethyl-butyl]-4-fluoro-phenol]", "values": [{"measurement": "activity in the GR binding assay", "value": "demonstrated activity"}]}
{"smiles": "COc1ccc(F)cc1C(C)(C)CC(N)(Cc1cc(Cl)cc(Cl)c1)C(F)(F)F", "note": "(stereo not shown) [Compound 2, 1-(3,5-Dichloro-benzyl)-3-(5-fluoro-2-methoxy-phenyl)-3-methyl-1-trifluoromethyl-butylamine]", "values": [{"measurement": "activity in the GR binding assay", "value": "demonstrated activity"}]}
{"smiles": "COc1ccc(F)cc1C(C)(C)CC(N)(Cc1cc(C(F)(F)F)cc(Cl)c1F)C(F)(F)F", "note": "(stereo not shown) [Compound 4, 1-(3-Chloro-2-fluoro-5-trifluoromethyl-benzyl)-3-(5-fluoro-2-methoxy-phenyl)-3-methyl-1-trifluoromethyl-butylamine]", "values": [{"measurement": "activity in the GR binding assay", "value": "demonstrated activity"}]}
{"smiles": "COc1ccc(F)cc1C(C)(C)CC(N)(Cc1cc(C)cc(C)c1)C(F)(F)F", "note": "(stereo not shown) [Compound 1, 1-(3,5-Dimethyl-benzyl)-3-(5-fluoro-2-methoxy-phenyl)-3-methyl-1-trifluoromethyl-butylamine]", "values": [{"measurement": "activity in the GR binding assay", "value": "demonstrated activity"}]}
{"smiles": "COc1ccc(F)cc1C(C)(C)CC(N)(Cc1ccc(C#N)cc1Cl)C(F)(F)F", "note": "(stereo not shown) [Compound 5, 4-[2-Amino-4-(5-fluoro-2-methoxy-phenyl)-4-methyl-2-trifluoromethyl-pentyl]-3-chloro-benzonitrile]", "values": [{"measurement": "activity in the GR binding assay", "value": "demonstrated activity"}]}
